# Results taken from US20160052898A1, “NOVEL COMPOUNDS” (BAYER PHARMA AKTIENGESELLSCHAFT, priority 2013, published 2016).
# How the values were obtained:
# Format in all cases: cell-based
# [1] = test system: wildtype Wnt pathway; experiment: HEK293 Super TopFlash cellular reporter assay, Wnt-3a stimulated (wildtype Wnt pathway); details: Homo sapiens; HEK293 TOP reporter cells, EC50 concentration of recombinant Wnt-3a, 16 hours incubation; read-out: HEK TOP OncoFlash IC50
# Description: (§1) In order to determine the inhibitory activity of compounds for the WT Wnt signaling pathway, the Super TopFlash vector respectively FOP vector were cotransfected with pcDNA3 into HEK293 and stable transfected HEK293 cells were isolated by antibiotic selection. […] The recombinant human Wnt-3a was thereby used between 2500 and 5 ng/ml in two-fold dilution steps. […] Measurement of luciferase expression was done as described for the constitutive active Wnt assay.
# In order to discover and characterize small molecules which inhibit the wildtype Wnt pathway, a cellular reporter assay was employed. The corresponding assay cell was generated by transfection of the mammalian cell line HEK293 (ATCC, #CRL-1573) with the Super TopFlash vector (Morin, Science 275, 1997, 1787-1790; Molenaar et al., Cell 86 (3), 1996, 391-399). The HEK293 cell line is cultivated at 37° C. and 5% CO2 in DMEM (Life Technologies, #41965-039), supplemented with 2 mM glutamine, 20 mM HEPES, 1.4 mM pyruvate, 0.15% Na-bicarbonate and 10% foetal bovine serum (GIBCO, #10270). Stable transfectants were generated by selection with 300 μg/ml Hygromycin.
# (§2) In preparation of the assay, the two cell lines were plated 24 hours before beginning the test at 10000 cells per well in a 384 micro titre plate (MTP) in […] growth medium. […] The recombinant human Wnt-3a was thereby applied between 2500 and 5 ng/ml in two-fold dilution steps. Selective inhibitory activity for small molecules on the wildtype Wnt pathway was determined after parallel incubation of both (TOP and FOP) HEK293 reporter cell lines with a compound dilution series from 50 μM to 15 nM in steps of 3.16-fold dilutions in CAFTY buffer (130 mM NaCl, 5 mM KCl, 20 mM HEPES, 1 mM MgCl2, 5 mM NaHCO3, pH 7.4) containing 2 mM Ca^2+ and 0.01% BSA.
# (§3) The compounds were thereby serially prediluted in 100% DMSO and thereafter 50 fold into the CAFTY compound dilution buffer (described above).
# [2] = test system: HCT116 FOP control reporter cell line; experiment: HCT116 FOP control vector reporter assay (non-functional TCF elements); details: Homo sapiens, HCT-116, 36 h, HCT116 FOP control reporter cells, luciferase expression, 36 hours incubation, 50 μM to 15 nM; read-out: HCT116 FOPFlash IC50
# Method in brief: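 Stable HCT116 line carrying the non-functional FOP luciferase construct, 10000 cells/well plated 24 hrs before. Compounds 50 μM to 15 nM (3.16-fold steps) in CAFTY buffer pH 7.4 with 2 mM Ca2+, 36 hours at 37° C; luciferase luminescence read.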
# [3] = test system: constitutive active colorectal cancer cell (CRC) Wnt pathway; experiment: HCT116 Super TopFlash cellular reporter assay (constitutive active Wnt pathway); details: Homo sapiens, HCT-116, 36 h, HCT116 TOP reporter cells, luciferase expression, 36 hours incubation, 50 μM to 15 nM
# Method in brief: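 HCT116 cells (β-catenin ΔS45) stably carrying Super TopFlash, with a parallel FOP-control line, were plated 24 h ahead. They were exposed 36 h at 37 °C, 5% CO2 to compound from a 50 μM–15 nM, 3.16-fold pre-dilution series in CAFTY buffer (pH 7.4, 2 mM Ca2+, 0.01% BSA). Wnt signalling was read as luciferase luminescence.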
# [4] = test system: HEK293 FOP control reporter cell line; experiment: HEK293 FOP control vector reporter assay; details: Homo sapiens; HEK293 FOP control reporter cells, EC50 concentration of recombinant Wnt-3a, 16 hours incubation; read-out: HEK FOP IC50
# Description: as §1
# In a parallel approach, HEK293 cells were cotransfected with the FOP control vector and pcDNA3. The FOP vector is identical to the TOP construct, but it contains instead of functional TCF elements a randomized, non-functional sequence. For this transfection a stable transfected cell line was generated as well, based on selection with Geneticin (1 mg/ml).
# as §2, §3
IC50 [1],IC50 [2],IC50 [3],Structure (SMILES),IC50 [4]
4000 nM,≥ 50000 nM,222 nM,"COc1ccc(NC(=O)c2ccc(-c3ccccc3)cc2)cc1NC(=O)[C@H](C)N1CC2CCC(C1)O2 [Example 56, N-(4-methoxy-3-{[(2S)-2-(8-oxa-3-azabicyclo[3.2.1]oct-3-yl)propanoyl]amino}phenyl)biphenyl-4-carboxamide]",≥ 50000 nM
2200 nM,≥ 50000 nM,54 nM,"CC(C(=O)Nc1cc(NC(=O)c2ccc(-c3ccccc3)cc2)ccc1OC(F)(F)F)N1CC2CCC(C1)O2 (stereo not drawn) [Example 58, N-[3-{[2-(8-oxa-3-azabicyclo[3.2.1]oct-3-yl)propanoyl]amino}-4-(trifluoromethoxy)phenyl]biphenyl-4-carboxamide]",35000 nM
1700 nM,40000 nM,111 nM,"C[C@@H](C(=O)Nc1cc(NC(=O)c2ccc(-c3ccccc3)cc2)ccc1OC(F)(F)F)N1CC2CCC(C1)O2 [Example 59, N-[3-{[(2S)-2-(8-oxa-3-azabicyclo[3.2.1]oct-3-yl)propanoyl]amino}-4-(trifluoromethoxy)phenyl]biphenyl-4-carboxamide]",≥ 50000 nM
140 nM,≥ 50000 nM,130 nM,"CC(C(=O)Nc1cc(NC(=O)c2ccc(-c3ccccc3)cc2)ccc1OC(F)(F)F)N1CCOCC1 (stereo not drawn) [Example 61, N-[3-{[2-(morpholin-4-yl)propanoyl]amino}-4-(trifluoromethoxy)phenyl]biphenyl-4-carboxamide]",≥ 50000 nM
55 nM,≥ 50000 nM,61 nM,"C[C@@H](C(=O)Nc1cc(NC(=O)c2ccc(-c3ccccc3)cc2)ccc1OC(F)(F)F)N1CCOCC1 [Example 62, N-[3-{[(2S)-2-(morpholin-4-yl)propanoyl]amino}-4-(trifluoromethoxy)phenyl]biphenyl-4-carboxamide]",8000 nM
1600 nM,≥ 50000 nM,39.2 nM,"O=C(CN1CCOCC1)Nc1cc(NC(=O)c2ccc(-c3ccccc3)cc2)ccc1OC(F)(F)F [Example 66, N-{3-[(morpholin-4-ylacetyl)amino]-4-(trifluoromethoxy)phenyl}biphenyl-4-carboxamide]",≥ 50000 nM
2500 nM,≥ 50000 nM,2250 nM,"COc1ccc(NC(=O)c2ccc(-c3cccc(C)c3)cc2)cc1NC(=O)CN1CCOCC1 [Example 71, N-{4-methoxy-3-[(morpholin-4-ylacetyl)amino]phenyl}-3′-methylbiphenyl-4-carboxamide]",25000 nM
1300 nM,≥ 50000 nM,3750 nM,"COc1ccc(NC(=O)c2ccc(-c3cccc(C#N)c3)cc2)cc1NC(=O)CN1CCOCC1 [Example 72, 3′-cyano-N-{4-methoxy-3-[(morpholin-4-ylacetyl)amino]phenyl}biphenyl-4-carboxamide]",≥ 50000 nM
1500 nM,≥ 50000 nM,1450 nM,"COc1ccc(NC(=O)c2ccc(-c3cccc(Cl)c3)cc2)cc1NC(=O)CN1CCOCC1 [Example 73, 3′-chloro-N-{4-methoxy-3-[(morpholin-4-ylacetyl)amino]phenyl}biphenyl-4-carboxamide]",32000 nM
140 nM,≥ 50000 nM,47 nM,"O=C(CN1CCOCC1)Nc1cc(NC(=O)c2ccc(-c3cccc(F)c3)cc2)ccc1OC(F)(F)F [Example 74, 3′-fluoro-N-{3-[(morpholin-4-ylacetyl)amino]-4-(trifluoromethoxy)phenyl}biphenyl-4-carboxamide]",8300 nM
850 nM,≥ 50000 nM,145 nM,"O=C(CN1CCOCC1)Nc1cc(NC(=O)c2ccc(-c3ccc(F)cc3)cc2)ccc1OC(F)(F)F [Example 75, 4′-fluoro-N-{3-[(morpholin-4-ylacetyl)amino]-4-(trifluoromethoxy)phenyl}biphenyl-4-carboxamide]",40000 nM
39 nM,≥ 50000 nM,487 nM,"Nc1ccc(-c2ccc(C(=O)Nc3ccc(OC(F)(F)F)c(NC(=O)CN4CCOCC4)c3)cc2)cc1 [Example 76, 4′-amino-N-{3-[(morpholin-4-ylacetyl)amino]-4-(trifluoromethoxy)phenyl}biphenyl-4-carboxamide]",11000 nM
4100 nM,≥ 50000 nM,1480 nM,"COC(=O)c1ccc(-c2ccc(C(=O)Nc3ccc(OC)c(NC(=O)CN4CCOCC4)c3)cc2)cc1 [Example 79, methyl 4′-({4-methoxy-3-[(morpholin-4-ylacetyl)amino]phenyl}carbamoyl)biphenyl-4-carboxylate]",≥ 50000 nM
3800 nM,≥ 50000 nM,3300 nM,"COc1cccc(-c2ccc(C(=O)Nc3ccc(OC)c(NC(=O)CN4CCOCC4)c3)cc2)c1 [Example 80, 3′-methoxy-N-{4-methoxy-3-[(morpholin-4-ylacetyl)amino]phenyl}biphenyl-4-carboxamide]",≥ 50000 nM
320 nM,≥ 50000 nM,290 nM,"COc1ccc(NC(=O)c2ccc(-c3cccc(F)c3)cc2)cc1NC(=O)CN1CCOCC1 [Example 81, 3′-fluoro-N-{4-methoxy-3-[(morpholin-4-ylacetyl)amino]phenyl}biphenyl-4-carboxamide]",9800 nM
1700 nM,≥ 50000 nM,325 nM,"COc1ccc(NC(=O)c2ccc(-c3ccccc3F)cc2)cc1NC(=O)CN1CCOCC1 [Example 82, 2′-fluoro-N-{4-methoxy-3-[(morpholin-4-ylacetyl)amino]phenyl}biphenyl-4-carboxamide]",≥ 50000 nM
760 nM,≥ 50000 nM,319 nM,"COc1ccc(NC(=O)c2ccc(-c3ccc(N)cc3)cc2)cc1NC(=O)CN1CCOCC1 [Example 83, 4′-amino-N-{4-methoxy-3-[(morpholin-4-ylacetyl)amino]phenyl}biphenyl-4-carboxamide]",≥ 50000 nM
830 nM,≥ 50000 nM,99.7 nM,"CCOc1ccc(NC(=O)c2ccc(-c3ccccc3)cc2)cc1NC(=O)CN1CCOCC1 [Example 85, N-{4-ethoxy-3-[(morpholin-4-ylacetyl)amino]phenyl}biphenyl-4-carboxamide]",≥ 50000 nM
610 nM,≥ 50000 nM,87 nM,"COCCOCc1ccc(C(=O)Nc2ccc(-c3ccccc3)cc2)cc1NC(=O)CN1CCOCC1 [Example 86, N-(biphenyl-4-yl)-4-[(2-methoxyethoxy)methyl]-3-[(morpholin-4-ylacetyl)amino]benzamide]",≥ 50000 nM
93 nM,≥ 50000 nM,44.8 nM,"O=C(Nc1ccc(-c2ccccc2)cc1)c1ccc(OCc2ccccc2)c(NC(=O)C2(N3CCOCC3)CC2)c1 [Example 88, 4-(benzyloxy)-N-(biphenyl-4-yl)-3-({[1-(morpholin-4-yl)cyclopropyl]carbonyl}amino)benzamide]",≥ 50000 nM
20.6 nM,27400 nM,50 nM,"CC(=O)NCCCOc1ccc(C(=O)Nc2ccc(-c3ccccc3)cc2)cc1NC(=O)C1(N2CCOCC2)CC1 [Example 90, 4-(3-acetamidopropoxy)-N-(biphenyl-4-yl)-3-({[1-(morpholin-4-yl)cyclopropyl]carbonyl}amino)benzamide]",6100 nM
